The results in this text go back to ChEMBL document CHEMBL3784984, “Cyclolinopeptides, cyclic peptides from flaxseed with osteoclast differentiation inhibitory activity” (Bioorg Med Chem Lett, 2016).

pIC50: −log10 of the molar value. Non-standard residues stand in square brackets, D forms with d. Residues, ends and D or L forms follow the SMILES beside them. Met(O) = CS(=O)CC[C@H](N)C(=O)O

In one data set the test system is Bone marrow cell. Nature of the data set: Inhibition of RANKL-induced osteoclast differentiation in ICR mouse bone marrow cells after 48 hrs by TRAP assay. It counts as functional, cell-based.
The nature of data set [1]: Cytotoxicity against ICR mouse bone marrow cells assessed as cell viability after 24 hrs by MTT assay. The format is cell-based. In general terms: Tetrazolium dyes change colour on reduction, which living cells bring about.

The pIC50 is −log10 of the IC50, conventionally taken in molar units. A high value points to a low IC50. For `CC[C@H](C)[C@@H]1NC(=O)[C@H](C(C)C)NC(=O)[C@H](Cc2ccccc2)NC(=O)[C@H](Cc2ccccc2)NC(=O)[C@@H]2CCCN2C(=O)[C@@H]2CCCN2C(=O)[C@H]([C@@H](C)CC)NC(=O)[C@H](CC(C)C)NC(=O)[C@H](CCSC)NC1=O` (cyclo(FFVIMLIPP)), the pIC50 in the data set with Bone marrow cell was 5.26. In addition, in data set [1], the Activity result was “Non-toxic”. The like results for `CC[C@H](C)[C@@H]1NC(=O)[C@H](C(C)C)NC(=O)[C@H](Cc2ccccc2)NC(=O)[C@H](Cc2ccccc2)NC(=O)[C@@H]2CCCN2C(=O)[C@@H]2CCCN2C(=O)[C@H]([C@@H](C)CC)NC(=O)[C@H](CC(C)C)NC(=O)[C@H](CC[S+](C)[O-])NC1=O` (stereo not given in full) (cyclo(FFVI[Met(O)]LIPP)) were, in that order, 4.83 and “Non-toxic”. The like results for `CC[C@H](C)[C@@H]1NC(=O)[C@H](Cc2c[nH]c3ccccc23)NC(=O)[C@H](Cc2ccccc2)NC(=O)[C@H](Cc2ccccc2)NC(=O)[C@@H]2CCCN2C(=O)[C@H](CCSC)NC(=O)[C@H](CC(C)C)NC(=O)[C@H](CCSC)NC1=O` (cyclo(FFWIMLMP)) were, in that order, 6.31 and “Non-toxic”. The like results for `CC[C@H](C)[C@@H]1NC(=O)[C@H](Cc2c[nH]c3ccccc23)NC(=O)[C@H](Cc2ccccc2)NC(=O)[C@H](Cc2ccccc2)NC(=O)[C@@H]2CCCN2C(=O)[C@H](CC[S+](C)[O-])NC(=O)[C@H](CC(C)C)NC(=O)[C@H](CCSC)NC1=O` (stereo not given in full) (cyclo(FFWIML[Met(O)]P)) were, in that order, 5.33 and “Non-toxic”. Turning to `CC[C@H](C)[C@@H]1NC(=O)[C@H](Cc2c[nH]c3ccccc23)NC(=O)[C@H](Cc2ccccc2)NC(=O)[C@H](Cc2ccccc2)NC(=O)[C@@H]2CCCN2C(=O)[C@H](CC(C)C)NC(=O)[C@H](CC(C)C)NC(=O)[C@H](CC[S+](C)[O-])NC1=O` (stereo not given in full) (cyclo(FFWI[Met(O)]LLP)), the pIC50 with Bone marrow cell was 5.41. The Activity entry in data set [1] is “Non-toxic”.

In the data set on Bone marrow cell, `CC[C@H](C)[C@@H]1NC(=O)[C@H](Cc2c[nH]c3ccccc23)NC(=O)[C@H](Cc2ccccc2)NC(=O)[C@H](Cc2ccccc2)NC(=O)[C@@H]2CCCN2C(=O)[C@H](CCSC)NC(=O)[C@H](CC(C)C)NC(=O)[C@H](CC[S+](C)[O-])NC1=O` (stereo not given in full) (cyclo(FFWI[Met(O)]LMP)) had a pIC50 of 6.08. Besides, the Activity entry in data set [1] is “Non-toxic”. The like results for `CC[C@H](C)[C@@H]1NC(=O)[C@H](Cc2c[nH]c3ccccc23)NC(=O)[C@H](Cc2ccccc2)NC(=O)[C@H](Cc2ccccc2)NC(=O)[C@@H]2CCCN2C(=O)[C@H](CC[S+](C)[O-])NC(=O)[C@H](CC(C)C)NC(=O)[C@H](CC[S+](C)[O-])NC1=O` (stereo not given in full) (cyclo(FFWI[Met(O)]L[Met(O)]P)) were, in that order, 5.39 and “Non-toxic”. For `CSCC[C@@H]1NC(=O)[C@H](C(C)C)NC(=O)[C@H](Cc2c[nH]c3ccccc23)NC(=O)[C@H](Cc2ccccc2)NC(=O)[C@H](Cc2ccccc2)NC(=O)[C@@H]2CCCN2C(=O)[C@H](CCSC)NC(=O)[C@H](CC(C)C)NC1=O` (cyclo(FFWVMLMP)) the same measures were 6.22 and “Non-toxic”. In the data set with Bone marrow cell, `CSCC[C@@H]1NC(=O)[C@H](C(C)C)NC(=O)[C@H](Cc2c[nH]c3ccccc23)NC(=O)[C@H](Cc2ccccc2)NC(=O)[C@H](Cc2ccccc2)NC(=O)[C@@H]2CCCN2C(=O)[C@H](CC[S+](C)[O-])NC(=O)[C@H](CC(C)C)NC1=O` (stereo not given in full) (cyclo(FFWVML[Met(O)]P)) had a pIC50 of 6.33. Moreover, in data set [1], the Activity entry is recorded as “Non-toxic”. Turning to `CSCC[C@@H]1NC(=O)[C@H](CC(C)C)NC(=O)[C@H](CC[S+](C)[O-])NC(=O)[C@H](C(C)C)NC(=O)[C@H](Cc2c[nH]c3ccccc23)NC(=O)[C@H](Cc2ccccc2)NC(=O)[C@H](Cc2ccccc2)NC(=O)[C@@H]2CCCN2C1=O` (stereo not given in full) (cyclo(FFWV[Met(O)]LMP)), the pIC50 with Bone marrow cell is 6.23. Also, the Activity entry in data set [1] is on record as “Non-toxic”. The like results for `CC(C)C[C@@H]1NC(=O)[C@H](CC[S+](C)[O-])NC(=O)[C@H](C(C)C)NC(=O)[C@H](Cc2c[nH]c3ccccc23)NC(=O)[C@H](Cc2ccccc2)NC(=O)[C@H](Cc2ccccc2)NC(=O)[C@@H]2CCCN2C(=O)[C@H](CC[S+](C)[O-])NC1=O` (stereo not given in full) (cyclo(FFWV[Met(O)]L[Met(O)]P)) were, in that order, 6.24 and “Non-toxic”. For `CC[C@H](C)[C@@H]1NC(=O)[C@H](Cc2ccccc2)NC(=O)[C@H](CC(C)C)NC(=O)[C@@H]2CCCN2C(=O)[C@H](Cc2ccccc2)NC(=O)[C@H](C(C)C)NC(=O)[C@H](CC(C)C)NC(=O)[C@H](CCSC)NC1=O` (cyclo(FIMLVFPL)) the same measures were 4.82 and “Non-toxic”. For the molecule `CC[C@H](C)[C@@H]1NC(=O)[C@H](Cc2ccccc2)NC(=O)[C@H](CC(C)C)NC(=O)[C@@H]2CCCN2C(=O)[C@H](Cc2ccccc2)NC(=O)[C@H](C(C)C)NC(=O)[C@H](CC(C)C)NC(=O)[C@H](CC[S+](C)[O-])NC1=O` (stereo not given in full) (cyclo(FI[Met(O)]LVFPL)), in the data set with Bone marrow cell, the pIC50 was less than 4.70. In addition, the Activity result in data set [1] is recorded as “Non-toxic”. The molecule `COc1cc(/C=C/C(=O)CC(=O)/C=C/c2ccc(O)c(OC)c2)ccc1O` [CURCUMIN] had a pIC50 in the data set on Bone marrow cell of 5.12. Regarding `CC[C@H](C)[C@@H]1NC(=O)[C@H](CC(C)C)NC(=O)[C@H](Cc2ccccc2)NC(=O)[C@H](Cc2ccccc2)NC(=O)[C@@H]2CCCN2C(=O)[C@@H]2CCCN2C(=O)[C@H](C(C)C)NC(=O)[C@H](CC(C)C)NC(=O)[C@H]([C@@H](C)CC)NC1=O` [CYCLOLINOPEPTIDE A] (cyclo(FFLIILVPP)), the pIC50 in the data set with Bone marrow cell is 4.91. Besides, the Activity entry in data set [1] was “Non-toxic”. In turn, `CC(C)Oc1ccc2c(=O)c(-c3ccccc3)coc2c1` [IPRIFLAVONE] gave a pIC50 in the data set with Bone marrow cell of 4.76.
